Measurements published in ChEMBL document CHEMBL1201862, “PubChem BioAssay data set” (2004).
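1) Cells in 96-well plates. 2) Compound, 48 h, 5 concentrations. 3) Linear interpolation between surrounding doses. 4) Unreached endpoint = highest concentration. GI50 is the concentration that inhibits growth by half.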 The source made the active and inactive calls. Cut-off read from the data, not from the text of the source: active = GI50 up to about 1.1 µM and inactive = higher.

Assays:
Test in all cases: NCI tumour cell line growth inhibition, 48 h
HCC 2998 = tested on: HCC 2998
TK-10 = tested on: TK-10
HOP-92 = tested on: HOP-92
OVCAR-4 = tested on: OVCAR-4
KM12 = tested on: KM12
NCI/ADR-RES = tested on: NCI/ADR-RES
DU-145 = tested on: DU-145
A498 = tested on: A498
T47D = tested on: T47D
CAKI-1 = tested on: CAKI-1
UACC-62 = tested on: UACC-62
SNB-75 = tested on: SNB-75
Hs-578T = tested on: Hs-578T
BT-549 = tested on: BT-549
RPMI-8226 = tested on: RPMI-8226
U-251 = tested on: U-251
ACHN = tested on: ACHN
RXF 393 = tested on: RXF 393
OVCAR-5 = tested on: OVCAR-5
SR = tested on: SR
HL-60 = tested on: HL-60
SW-620 = tested on: SW-620
CCRF-CEM = tested on: CCRF-CEM
SK-MEL-28 = tested on: SK-MEL-28
OVCAR-8 = tested on: OVCAR-8
MDA-N = tested on: MDA-N
IGROV-1 = tested on: IGROV-1
OVCAR-3 = tested on: OVCAR-3
NCI-H226 = tested on: NCI-H226
COLO 205 = tested on: COLO 205
MOLT-4 = tested on: MOLT-4
HT-29 = tested on: HT-29
SF-295 = tested on: SF-295
K562 = tested on: K562
NCI-H522 = tested on: NCI-H522
MDA-MB-435 = tested on: MDA-MB-435
NCI-H23 = tested on: NCI-H23
A549 = tested on: A549
NCI-H460 = tested on: NCI-H460
HCT-116 = tested on: HCT-116
Malme-3M = tested on: Malme-3M
MCF7 = tested on: MCF7
PC-3 = tested on: PC-3
SK-OV-3 = tested on: SK-OV-3
HOP-62 = tested on: HOP-62
LOX IMVI = tested on: LOX IMVI
EKVX = tested on: EKVX
UACC-257 = tested on: UACC-257
UO-31 = tested on: UO-31
MDA-MB-231 = tested on: MDA-MB-231
SK-MEL-5 = tested on: SK-MEL-5
HCT-15 = tested on: HCT-15
SF-539 = tested on: SF-539
SF-268 = tested on: SF-268
786-0 = tested on: 786-0
SN12C = tested on: SN12C
M14 = tested on: M14
SK-MEL-2 = tested on: SK-MEL-2
SNB-19 = tested on: SNB-19

COc1ccc(C2=Nn3c(nc4sc(C)c(C)c4c3=O)SC2)cc1
GI50 (HCC 2998): > 100 µM (inactive) | GI50 (TK-10): > 100 µM (inactive) | GI50 (HOP-92): > 100 µM (inactive) | GI50 (OVCAR-4): > 100 µM (inactive) | GI50 (KM12): > 100 µM (inactive) | GI50 (NCI/ADR-RES): > 100 µM (inactive) | GI50 (DU-145): > 100 µM (inactive) | GI50 (A498): > 100 µM (inactive) | GI50 (T47D): > 100 µM (inactive) | GI50 (CAKI-1): > 100 µM (inactive) | GI50 (UACC-62): > 100 µM (inactive) | GI50 (SNB-75): > 100 µM (inactive) | GI50 (Hs-578T): > 100 µM (inactive) | GI50 (BT-549): > 100 µM (inactive) | GI50 (RPMI-8226): > 100 µM (inactive) | GI50 (U-251): > 100 µM (inactive) | GI50 (ACHN): > 100 µM (inactive) | GI50 (RXF 393): > 100 µM (inactive) | GI50 (OVCAR-5): > 100 µM (inactive) | GI50 (SR): > 100 µM (inactive) | GI50 (HL-60): > 100 µM (inactive) | GI50 (SW-620): > 100 µM (inactive) | GI50 (CCRF-CEM): > 100 µM (inactive) | GI50 (SK-MEL-28): > 100 µM (inactive) | GI50 (OVCAR-8): > 100 µM (inactive) | GI50 (MDA-N): > 100 µM (inactive) | GI50 (IGROV-1): > 100 µM (inactive) | GI50 (OVCAR-3): > 100 µM (inactive) | GI50 (NCI-H226): > 100 µM (inactive) | GI50 (COLO 205): > 100 µM (inactive) | GI50 (MOLT-4): > 100 µM (inactive) | GI50 (HT-29): > 100 µM (inactive) | GI50 (SF-295): > 100 µM (inactive) | GI50 (K562): > 100 µM (inactive) | GI50 (NCI-H522): > 100 µM (inactive) | GI50 (MDA-MB-435): > 100 µM (inactive) | GI50 (NCI-H23): > 100 µM (inactive) | GI50 (A549): > 100 µM (inactive) | GI50 (NCI-H460): > 100 µM (inactive) | GI50 (HCT-116): > 100 µM (inactive) | GI50 (Malme-3M): > 100 µM (inactive) | GI50 (MCF7): > 100 µM (inactive) | GI50 (PC-3): > 100 µM (inactive) | GI50 (SK-OV-3): > 100 µM (inactive) | GI50 (HOP-62): > 100 µM (inactive) | GI50 (LOX IMVI): > 100 µM (inactive) | GI50 (EKVX): > 100 µM (inactive) | GI50 (UACC-257): > 100 µM (inactive) | GI50 (UO-31): > 100 µM (inactive) | GI50 (MDA-MB-231): > 100 µM (inactive) | GI50 (SK-MEL-5): > 100 µM (inactive) | GI50 (HCT-15): > 100 µM | GI50 (SF-539): > 100 µM (inactive) | GI50 (SF-268): > 100 µM (inactive) | GI50 (786-0): > 100 µM (inactive) | GI50 (SN12C): > 100 µM (inactive)

COC(COC(=O)N1CCN(C=O)CC1)C1=C(N2CC2)C(=O)C(C)=C(N2CC2)C1=O (stereo not drawn)
GI50 (HCC 2998): 21.2 µM (inactive) | GI50 (TK-10): 0.579 µM (active) | GI50 (HOP-92): 0.198 µM (active) | GI50 (OVCAR-4): 0.585 µM (active) | GI50 (KM12): 0.551 µM (active) | GI50 (NCI/ADR-RES): 5.57 µM (inactive) | GI50 (DU-145): 0.0472 µM (active) | GI50 (M14): 0.202 µM (active) | GI50 (A498): 1.51 µM (inactive) | GI50 (T47D): 0.257 µM (active) | GI50 (SK-MEL-2): 0.705 µM (active) | GI50 (CAKI-1): 0.12 µM (active) | GI50 (UACC-62): 0.169 µM (active) | GI50 (SNB-19): 0.437 µM (active) | GI50 (Hs-578T): 1.26 µM (inactive) | GI50 (BT-549): 0.455 µM (active) | GI50 (RPMI-8226): 0.362 µM (active) | GI50 (U-251): 0.219 µM (active) | GI50 (ACHN): < 0.0193 µM (active) | GI50 (RXF 393): 0.228 µM (active) | GI50 (OVCAR-5): 2.56 µM (inactive) | GI50 (SR): < 0.01 µM (active) | GI50 (SW-620): 0.141 µM (active) | GI50 (CCRF-CEM): 0.13 µM (active) | GI50 (SK-MEL-28): 1.27 µM (inactive) | GI50 (OVCAR-8): 0.17 µM (active) | GI50 (MDA-N): 0.248 µM (active) | GI50 (IGROV-1): 0.271 µM (active) | GI50 (OVCAR-3): 0.656 µM (active) | GI50 (NCI-H226): 0.582 µM (active) | GI50 (COLO 205): 0.272 µM (active) | GI50 (MOLT-4): 0.138 µM (active) | GI50 (HT-29): 0.189 µM (active) | GI50 (SF-295): 1.22 µM (inactive) | GI50 (K562): 0.462 µM (active) | GI50 (NCI-H522): 0.107 µM (active) | GI50 (MDA-MB-435): 0.424 µM (active) | GI50 (NCI-H23): 0.0675 µM (active) | GI50 (A549): 0.167 µM (active) | GI50 (NCI-H460): < 0.0278 µM (active) | GI50 (HCT-116): 0.157 µM (active) | GI50 (Malme-3M): 0.336 µM (active) | GI50 (MCF7): 0.0313 µM (active) | GI50 (PC-3): 0.461 µM (active) | GI50 (SK-OV-3): 0.195 µM (active) | GI50 (HOP-62): 0.191 µM (active) | GI50 (LOX IMVI): 0.0664 µM (active) | GI50 (EKVX): 5.08 µM (inactive) | GI50 (UACC-257): 0.309 µM (active) | GI50 (UO-31): 0.486 µM (active) | GI50 (MDA-MB-231): 2.29 µM (inactive) | GI50 (SK-MEL-5): 0.172 µM (active) | GI50 (HCT-15): 1.73 µM | GI50 (SF-539): 0.0632 µM (active) | GI50 (SF-268): 0.12 µM (active) | GI50 (786-0): 0.0644 µM (active) | GI50 (SN12C): 0.0336 µM (active)
